Measurements published in publication PMC4526861, “Inhibition of protein kinase C by isojacareubin suppresses hepatocellular carcinoma metastasis and induces apoptosis in vitro and in vivo” (Scientific Reports, 2015).

Key:
[1] = test system: SMMC-7721 cells; experiment: Cell proliferation assay (CCK-8), SMMC-7721; format: cell-based, human; conditions: mean ± SD, at least three independent experiments
Method: (§1) The human HCC cell lines QGY-7703, SMMC-7721 and HepG2 and the liver cell line QSG-7701 were supplied by the Cell Resource Center, Institute of Life Sciences, Chinese Academy of Medical Science. QGY-7703, SMMC-7721 and QSG-7701 cells were cultured in 1640 medium (Gibco), and HepG2 cells were cultured in DMEM medium (Gibco) at 37 °C in moist air supplemented with 5% CO2. All media were supplemented with 10% fetal bovine serum (FBS) and 100 Units/mL of penicillin/streptomycin.
(§2) The cell viability assay was performed as previously reported using a Cell Counting Kit-8 (CCK-8; Dojindo, Kumamoto, Japan)[33][34]. The relative cell viability was presented as % inhibition and calculated using the following formula: […]

[2] = molecular target: T1, PKCδ (Homo sapiens, UniProt Q05655); experiment: Cell-based pull-down assay, PKCδ; format: binding; conditions: HepG2 lysates
T1 construct: Endogenous cPKC (PKCα) and nPKC (PKCδ, PKCε and PKCμ) in HepG2 lysates were pulled down; endogenous in cells; host or cells: HepG2
Method: To identify whether ISJ and compound 7 target PKC in cells, we performed pull-down experiments using ISJ- and compound 7-coupled Sepharose beads with HepG2 cell lysates. Endogenous cPKC (PKCα) and nPKC (PKCδ, PKCε and PKCμ) in HepG2 lysates were pulled down by ISJ-coupled CNBr-activated Sepharose 4B beads (Fig. 5a).
The control beads were prepared by incubating the beads with DMSO. Proteins (500 μg) from lysed HepG2 cells were mixed with either the control beads, compound 7-coupled beads, or ISJ-coupled beads (100 μL) in reaction buffer [50 mM Tris (pH 7.5), 5 mM EDTA, 150 mM NaCl, 1 mM DTT, 0.01% NP-40, 2 μg/mL BSA, 1 mM PMSF, 1% protease inhibitor mixture]. After incubation with gentle rocking overnight at 4 °C, the beads were washed 5 times with washing buffer [50 mM Tris (pH 7.5), 5 mM EDTA, 150 mM NaCl, 1 mM DTT, 0.01% NP-40, 1 mM PMSF], and binding was visualized by western blotting.

[3] = test system: HepG2 cells; experiment: Cell proliferation assay (CCK-8), HepG2; format: cell-based, human
Method: as §1, §2

[4] = test system: QSG-7701 hepatocytes; experiment: Cell proliferation assay (CCK-8), QSG-7701 hepatocytes; format: cell-based, human; conditions: nonmalignant hepatocytes; mean ± SD
Method: as §1, §2

[5] = test system: phosphorylated c-Raf, MEK1/2 and ERK1/2; experiment: Western blot of MAPK phosphorylation, HepG2; format: cell-based, human; conditions: HepG2, 24 h
Method: Additional PKC targeting effects involved in the early response of major MAPK phosphorylation and the late response of HCC cell invasion and apoptosis were investigated. After 24 h of treatment with ISJ at the indicated concentrations, the total protein lysates from HCC cells were analyzed (Fig. 6). ISJ inhibited the phosphorylated, activated forms of c-Raf, MEK1/2 and ERK1/2 in the MAPK signaling pathway in both HepG2 and QGY-7703 cells (Fig. 6a). […] In contrast, E-cadherin expression was elevated, specifically at the highest concentration of ISJ (20 μM) (Fig. 6b). In addition, we analyzed several representative apoptotic proteins, including cleaved PARP (c-PARP), p53 and p21. […] These findings support our hypothesis that ISJ restrains HCC cell metastasis and induces HCC cell apoptosis by specifically inhibiting PKC.
The total membrane and cytosolic proteins were extracted using a Membrane and Cytosol Protein Extraction Kit (Beyotime). Extracted proteins from cells or animal tissues were separated by SDS-PAGE and transferred to polyvinylidene difluoride (PVDF) membranes (Bio-Rad). The PVDF membranes were blocked with 5% nonfat milk and incubated with primary antibodies overnight, followed by incubation with a donkey anti-rabbit or anti-mouse secondary antibody (IRDye 800, LI-COR, Biosciences). […] The intensity was quantitative with Quantity One software (Bio-Rad). […]

[6] = test system: HepG2 xenografts; experiment: Antitumor activity in vivo, HepG2 xenograft; set-up: species or system BALB/c-nu nude mice; conditions: 5 mg/kg, tail vein injection every other day for two weeks
Method: Four-week-old male BALB/c-nu nude mice (15–20 g) were obtained from the Shanghai SLAC Laboratory Animal Co., Ltd. (Shanghai, China). The animals were maintained under specific pathogen-free conditions with food and water supplied ad libitum in the Laboratory Animal Center of the Second Military Medical University. All animal experiments were carried out in accordance with the Guide for the Care and Use of Laboratory Animals of the National Institutes of Health and were approved by the Committee on the Ethics of Animal Experiments of the Second Military Medical University, China.
HepG2 cells were harvested and resuspended in PBS. A total of 5 × 10^6 cells were subcutaneously injected into the right flank. Tumor volume was calculated using the following formula: V = (L × W^2)/2, where L is the length and W is the width of the tumor nodules measured with vernier calipers. Once the volume of the tumors reached 75–100 mm^3, the mice were randomly divided into three groups (n = 5). The mice were treated every other day for two weeks with tail vein injections of either vehicle (5% ethanol and 2.5% polyethylene glycol in saline), compound 7, or ISJ (5 mg/kg in the vehicle). Body weights were measured before each drug injection. After the 15th day, the mice were euthanized, and the tumors were isolated, weighed and photographed.

[7] = test system: c-PARP, c-Cas3 and c-Cas9 in xenograft tumors; experiment: Histology, IHC and immunoblot of xenograft tumors; format: in vivo, BALB/c-nu nude mice; conditions: 5 mg/kg
Method: The total membrane and cytosolic proteins were extracted using a Membrane and Cytosol Protein Extraction Kit (Beyotime). Extracted proteins from cells or animal tissues were separated by SDS-PAGE and transferred to polyvinylidene difluoride (PVDF) membranes (Bio-Rad). The PVDF membranes were blocked with 5% nonfat milk and incubated with primary antibodies overnight, followed by incubation with a donkey anti-rabbit or anti-mouse secondary antibody (IRDye 800, LI-COR, Biosciences). The images were captured using the Odyssey Infrared Imaging System (LI-COR, Biosciences), according to the manufacturer's instructions. The intensity was quantitative with Quantity One software (Bio-Rad). To ensure equal protein loading, each membrane was stripped and reprobed with an anti-β-actin antibody. All experiments were repeated independently no less than three times.
To further confirm the antitumor activities of compound 7 and ISJ in vivo, histological analysis was performed on the hepatoma xenografts. Briefly, the samples were fixed in a 10% formalin solution, processed, embedded, sectioned and either H&E stained to reveal tumor tissue necrosis or IHC stained using antibodies against c-PARP, c-Cas3 or c-Cas9. The H&E and IHC images were obtained on a Leica DMI3000 B phase-contrast microscopy. The immunoreactive areas in the IHC images were quantified using ImagePro Plus 6.0 software (Media Cybernetics, Silver Spring, MD). The integrated optical density (IOD) values were represented as the mean ± SEM.

T1 sequence (Q05655 whole entry): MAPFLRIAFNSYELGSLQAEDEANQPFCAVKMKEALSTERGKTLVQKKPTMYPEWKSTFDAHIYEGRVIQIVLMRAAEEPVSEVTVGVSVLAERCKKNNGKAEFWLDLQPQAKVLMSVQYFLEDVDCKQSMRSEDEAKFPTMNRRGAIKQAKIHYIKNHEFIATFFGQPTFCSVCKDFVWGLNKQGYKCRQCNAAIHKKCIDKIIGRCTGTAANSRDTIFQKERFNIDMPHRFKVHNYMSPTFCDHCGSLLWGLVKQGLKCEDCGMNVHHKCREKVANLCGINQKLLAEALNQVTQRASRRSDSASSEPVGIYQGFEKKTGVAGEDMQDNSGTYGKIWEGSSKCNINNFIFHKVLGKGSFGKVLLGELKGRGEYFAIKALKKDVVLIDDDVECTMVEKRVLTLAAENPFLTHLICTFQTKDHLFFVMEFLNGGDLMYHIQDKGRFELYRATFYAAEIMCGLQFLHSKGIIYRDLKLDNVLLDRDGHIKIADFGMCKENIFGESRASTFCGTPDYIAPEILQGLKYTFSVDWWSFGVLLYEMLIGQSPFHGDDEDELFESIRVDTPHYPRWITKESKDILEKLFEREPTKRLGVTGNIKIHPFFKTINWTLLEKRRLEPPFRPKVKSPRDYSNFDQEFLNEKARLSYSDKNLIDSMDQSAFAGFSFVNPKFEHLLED

For Isojacareubin [ISJ], the IC50 [1] was 1630 ± 50 nM, the “pull-down of endogenous PKCδ by compound-coupled Sepharose 4B beads” value [2] was “pulled down” and the “Inhibitory Ratio (%) HepG2” value ([3]; 50 μM) was 91.54%. For the same substance, the IC50 ([3]; mean ± SD, at least three independent experiments) was 2450 ± 230 nM, the IC50 [4] was 47670 ± 80 nM and the “phosphorylated, activated forms of c-Raf, MEK1/2 and ERK1/2” value [5] was “inhibited”. For the same substance, the “reduction of tumor weight compared to controls” value [6] was 74.1%, the “H&E staining of xenograft tumors” value [7] was “significant tissue death” and the “IHC c-PARP, c-Cas3 and c-Cas9 levels in tumors” value [7] was “upregulated expression”. The “immunoblot c-PARP, c-Cas3 and c-Cas9 levels in tumor tissue” value [7] was “increased”.
